Laboratory results from patent US8685976B2, “Cell adhesion promoting agent and method of promoting cell adhesion” (Kyoto University, priority 2008, dated 2014).

Key:
[1] = system: extracellular signal-regulated kinase (ERK); experiment: Western blotting, ERK activation; format: cell-based, human; conditions: Jurkat, 6 μM
Experimental: Jurkat cells were treated with adhesamine (6 μM) in a serum-poor culture medium (0.1% FBS) for the indicated periods of time. The treated cell lysates were Western blotted with antibodies against FAK phospho-tyrosine^397 (pFAK), FAK, ERK1/2 phospho-threonine^202/tyrosine^204 (pERK) or ERK. In (B), Jurkat cells were incubated for 5 hours with varied concentrations of adhesamine or poly-L-lysine. The cell lysates were Western blotted with antibodies against FAK phospho-tyrosine^397 or FAK. […] The concentration of adhesamine (1) was 6 μM.
Jurkat cells were maintained in an RPMI medium containing 10% FBS. 5-6 million Jurkat cells were dispensed to a well of a 6-well plate in a final volume of 2 mL, and then incubated at 37° C. for 0-5 hours in the presence of adhesamine or poly-L-lysine. Non-adherent cells were removed and pelleted, and the remaining adherent cells were lysed in a 125 mM Tris-HCl buffer (pH 6.8) containing 4% SDS, 10% glycerol, 0.006% bromophenol blue, and 1.8% β-mercaptoethanol. The adherent cell homogenate was combined with pelleted nonadherent cells from the same well, and the combined sample was boiled for 5 minutes. The samples were separated by SDS-PAGE and electroblotted onto a nitrocellulose membrane. The membranes were blocked in 1% BSA and incubated with primary antibody, and then with horseradish peroxidase-conjugated secondary antibody. […]

CHO 677 cells = experiment: Cell adhesion assay, CHO 677; format: cell-based; conditions: CHO 677, 6 μM, vs parental CHO-K1
Experimental: (§1) (A) and (B) show CHO-K1 (wild-type) cells incubated with 1% (v/v) DMSO (A) or 6 μM adhesamine (B). (C) and (D) show CHO 677 incubated with 1% (v/v) DMSO (A) or 6 μM adhesamine (B). […] Cells were seeded onto adhesamine-added or fibronectin-coated plastic wells. The concentrations of adhesamine and fibronectin were 6 μM and 5 μg/mL, respectively. Adhered cells were counted at 5 hours after seeding. Each point represents average±SD.
(§2) For CHO wild-type and CHO mutant cell lines, 100 μL of trypsinized cell suspension in a culture medium was added to each well at a density of 2×10^5 cells/mL. After 5-hour incubation at 37° C., non-adhered cells were removed by washing each well with PBS twice, and the attached cells were counted with a Neubauer counting chamber (Digital Bio). To calculate adhesion rates, the cell numbers before washing were assigned a value of 100%. Each assay was conducted in triplicate, and the means and standard derivations were calculated for a minimum of three independent experiments.

CHO F17 cells = experiment: Cell adhesion assay, CHO F17; format: cell-based; conditions: CHO F17, 6 μM
Experimental: as §1, §2

Jurkat cells [2] = experiment: Cell growth assay (WST-8), Jurkat; format: cell-based, human
Experimental: (§3) In (A) and (B), the cell growth was determined at 24, 48, and 72 hours after the addition of adhesamine (1) (6 μM). The cell growth in the presence of 1% (v/v) DMSO was assigned a value of 100%. The data shown are means±SD for a minimum of three experiments. (C) to (F) show the rearrangement of actin filaments in HepG2 and Jurkat cells in the presence of adhesamine (6 μM). Brightfield images (C and D) and confocal images (E and F) are shown. HepG2 (C and E) or Jurkat (D and F) cells were plated for 5 hours or 3 hours, respectively, and actin cytoskeletal was visualized using rhodamine-labeled phalloidin.
1 μL DMSO solution of adhesamine (1) was added to 96-well plate at a concentration of 600 μM. […] After incubation for indicated time, the cell viability was measured using Cell Counting Kit-8 (Dojindo Molecular Technologies, Inc., Gaithersburg, Md.), which contains a tetrazolium salt (WST-8) that produces a water-soluble formazan dye by NADH dehydrogenases in living cells. […] The optical density (OD) of the solution was read by a microplate reader, using a test wavelength at 450 nm and a reference wavelength at 650 nm. […] Each assay was conducted in triplicate, and the means and standard derivations were calculated for a minimum of three independent experiments.

HepG2 cells [3] = experiment: Visualization of actin cytoskeleton with rhodamine-conjugated phalloidin, HepG2; format: cell-based; conditions: HepG2, 6 μM
Experimental: as §3
Jurkat or HepG2 cells were plated onto glass coverslips in the presence of adhesamine (6 μM). They were fixed after 5 or 3 hours, respectively, with 4% paraformaldehyde for 20 minutes. The cell membrane was permeabilized by 5-min treatment with 0.1% Triton X-100 (in PBS). Samples were washed twice with PBS, and actin cytoskeleton was visualized with rhodamine-conjugated phalloidin according to the manufacturer's instructions (Invitrogen). The cell images were captured with a Yokogawa CSU22 confocal fluorescence microscope with 588-nm laser excitation.

Jurkat cells [4] = experiment: Microinjection of Alexa Fluor 594; format: cell-based, human; conditions: 5 μg/mL reagent
Experimental: The concentration of the reagents used was 5 μg/mL.
The solutions of adhesamine (1), Type I collagen, poly-L-lysine hydrochloride, and fibronectin were prepared by diluting with PBS containing 1% (v/v) DMSO. 10 μL of each solution (1 mg/mL) was added to glass bottom culture dishes (35 mm uncoated dish). 2 mL of cell suspension in a culture medium was added to each well at a density of 2×10^5 cells/mL. After 14-hour incubation at 37° C., Alexa Fluor 594 (Molecular Probes, USA) at a concentration of 5 mg/mL was injected into Jurkat cells by using a CI-2000 automated cell injection system (Fujitsu, Japan). Success rates of the microinjection were evaluated by direct observation of the fluorescent cells through a fluorescent-microscopic window of the injection system. The data shown are means±SD for a minimum of three experiments. 20 cells were injected in each experiment.

CHO 606 cells = experiment: Cell adhesion assay, CHO 606; format: cell-based; conditions: CHO 606, 6 μM
Experimental: as §1, §2

HepG2 cells [5] = experiment: Focal adhesion formation, anti-vinculin staining; format: cell-based; conditions: HepG2, immediately after seeding
Experimental: Trypsin-treated HepG2 cells were plated for 3 hours onto coverslips to which adhesamine was added; fixed thereon; and stained with anti-vinculin antibody and Alexa Fluor 488 goat anti-mouse IgG.
The cells were also stained with an antibody against vinculin, a marker of focal adhesion. […] These observations indicate that the adhesamine-induced contacts of the cells to the plates initiate a normal schedule of cell adhesion^(2,3).

## CSc1nc(Cl)c(C=O)c(N2CC[N+]3(CC2)CC[N+]2(CCN(c4nc(SC)nc(Cl)c4C=O)CC2)CC3)n1 [adhesamine]
[1]
  time after incubation at which ERK was phosphorylated: 5 h
CHO 677 cells
  response of cell adhesion to adhesamine: less responsive
CHO F17 cells
  response of cell adhesion to adhesamine: responded
Jurkat cells [2]; 6 μM
  cytotoxicity: no obvious cytotoxicity
Jurkat cells [2]; 6 μM, 24, 48, 72 hours, vs 1% DMSO
  growth of the cells: slightly enhanced
HepG2 cells [3]
  actin cytoskeleton structure in adhered cells: Actin filament bundles ran in parallel to the cell axis or through cell processes
Jurkat cells [4]
  effect on microinjection success: more than type I collagen, poly-L-lysine hydrochloride, and fibronectin
  microinjection success rates: ≤ 80%
CHO 606 cells
  response of cell adhesion to adhesamine: less responsive
HepG2 cells [5]
  vinculin-containing focal adhesions: Vinculin-containing focal adhesions were observed
